Measurements as given in patent US7611858B1, “Detection of cannabinoid receptor biomarkers and uses thereof” (University of Florida Research Foundation, Inc., priority 2004, dated 2009).

Assays:
[1] = test system: AC133 and nestin expression in brain cortex; experiment: neural stem cell markers in brain after traumatic brain injury in mice treated with 2-AG (blots); assay type: in vivo
[2] = test system: clonal neurospheres from postnatal rat forebrain; assay type: cell-based; settings: at 1 μM
[3] = test system: AC133 positive neural progenitors; experiment: clonal generation of neurospheres from dissociated mouse postnatal forebrain; assay type: cell-based
[4] = i.p. 5 mg/kg daily, 3 hr, 24 hr and 5 days post injury
[5] = treatment post injury 5 mg/kg i.p. daily

| Compound | AC133 in brain cortex after TBI (FIG. 6A) [1, 4] | Nestin in brain cortex after TBI (FIG. 6B) [1, 4] | expression of AC133 neural stem cells after traumatic brain injury (FIG. 10A) [1, 5] | expression of nestin in neural stem cells after traumatic brain injury (FIG. 10B) [1, 5] | clonal neurospheres from postnatal rat forebrain (FIG. 8A) [2] | clonal generation of neurospheres [3] |
| --- | --- | --- | --- | --- | --- | --- |
| CCCCC/C=C\C/C=C\C/C=C\C/C=C\CCCC(=O)OC(CO)CO [2-AG, 2-arachidonoyl glycerol] | up-regulation | up-regulation | increase of enhanced expression | increase of enhanced expression | abolition | instigated clonal generation of neurospheres |
| lysophosphatidic acid [LPA] |  |  |  |  |  | instigated clonal generation of mouse neurospheres |
